Paper PMC10823514, “Target Identification of a Class of Pyrazolone Protein Aggregation Inhibitor Therapeutics for Amyotrophic Lateral Sclerosis” (ACS Central Science, 2023)

Assays:
14-3-3-B = molecular target: T1, 14-3-3-B (Homo sapiens, UniProt P31946); test: Fluorescent thermal shift assay (FTSA) with 14-3-3-B; assay type: binding; settings: 0 and 100 μM P2
T1 construct: His-tag (TEV-cleavable) (cleaved yes); host or cells: E. coli (BL21)
T1 sequence (P31946 1-246): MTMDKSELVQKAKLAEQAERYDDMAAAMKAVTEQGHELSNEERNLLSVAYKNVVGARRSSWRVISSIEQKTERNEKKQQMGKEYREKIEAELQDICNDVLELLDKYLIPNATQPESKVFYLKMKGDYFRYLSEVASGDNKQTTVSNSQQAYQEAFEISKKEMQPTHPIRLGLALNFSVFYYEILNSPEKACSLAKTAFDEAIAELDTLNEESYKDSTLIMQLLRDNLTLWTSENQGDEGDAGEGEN
Method: (§1) His-tagged 14-3-3-E, B, and H plasmids were purchased from Addgene (plasmid ID# 31562, 39128, and 38814, respectively). E. coli (BL21) were transformed with extracted plasmids via heat shock and plated on selected media. Individual colonies were selected, grown, and sequenced to confirm gene presence. 1 L cultures were grown to an OD600 of 0.6 at 37 °C and 220 rpm. Protein expression was induced with 1 mM IPTG and expressed for 12 h at 100 rpm and room temperature (approximately 25 °C). Cells were spun down at 4000 rpm for 15 min at 4 °C and resuspended in lysis buffer containing 50 mM Tris (7.4), 150 mM NaCl, 0.08% DDM, 5 mM imidazole, and 5% glycerol (with an EDTA-free complete mini protease inhibitor cocktail). Cells were lysed via sonication, and the lysate was separated from cell debris by centrifugation at 15,000 rpm, 4 °C, for 45 min. The His-tagged protein was purified using QIAGEN Ni-NTA superflow columns, and the His-tag was removed with TEV protease. His-tag-removed proteins were further purified by size exclusion chromatography. His tag removal and size exclusion chromatography purification were done at the Northwestern University Protein Production core. […]
(§2) All of the FTSA experiments were conducted in HEPES buffer (60 mM HEPES, 150 mM NaCl, pH 7.4). […] The fluorescence was measured on a Bio-Rad CFX384 real-time PCR instrument.

14-3-3-G = molecular target: T2, 14-3-3-G (Homo sapiens, UniProt P61981); test: Fluorescent thermal shift assay (FTSA) with 14-3-3-G; assay type: binding; settings: 0 and 100 μM P2
T2 construct: purchased Abchem (so in the source)
T2 sequence (P61981 1-247): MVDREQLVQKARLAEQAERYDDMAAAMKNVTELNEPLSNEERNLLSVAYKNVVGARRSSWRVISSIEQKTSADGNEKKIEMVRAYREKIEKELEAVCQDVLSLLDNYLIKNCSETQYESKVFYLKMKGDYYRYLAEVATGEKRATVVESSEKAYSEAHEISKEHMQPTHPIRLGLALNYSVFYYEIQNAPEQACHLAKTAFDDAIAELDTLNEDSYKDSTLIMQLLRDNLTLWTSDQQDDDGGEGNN
Method: as §1, §2

O=c1cc(COc2cc(Cl)cc(Cl)c2)[nH][nH]1 [P2]
binding (Tm shift) (14-3-3-B): no binding
binding (Tm shift) (14-3-3-G): no binding
